Converted amounts (≈) assume the structure as drawn. Read-outs that look alike come from different tables or passages of the source.
Experiment: Solubility of compound 1 in solvent (100 mg blended with 10 ml solvent, supernatant measured by HPLC)
Assay type: physicochemical
Settings: for solubility thermodynamic: thermodynamic from solid, read-out: Compound 1 concentration; for solubility thermodynamic / Compound 1 concentration: room temperature
Procedure: After thoroughly blending 100 mg of compound 1 with 10 ml each of 0.05 N hydrochloric acid solution, methanol, ethanol, propylene carbonate, polysorbate 80, polyethylene glycol 400, polyethylene glycol 300, glycerin, dimethylacetamide or propylene glycol at room temperature, the supernatant obtained by centrifugal separation of each mixture was separated off and used as a pharmaceutical solution. Comparative control samples were also prepared by thoroughly dissolving 100 mg of compound 1 with 10 ml each of purified water, sodium acetate buffer solution at pH 4.0 or sodium phosphate buffer solution at pH 6.8 at room temperature, and separating off the supernatant obtained by centrifugal separation. […] All of the samples of the present invention contained dissolved compound 1 at a concentration of 5 mg/ml or greater, which is a sufficient concentration for an injection. On the other hand, all of the comparative control samples contained dissolved compound 1 only at a concentration of 0.2 mg/ml or less, and therefore the concentration necessary for an injection could not be guaranteed.

Nc1ccccc1NC(=O)c1ccc(CNC(=O)OCc2cccnc2)cc1 [Compound 1]
concentration of dissolved compound 1 (all of the comparative control samples): ≤ 200 µg/mL
concentration of dissolved compound 1 (all of the samples of the present invention): ≥ 5000 µg/mL
solubility thermodynamic (purified water, solvent: water, comparative control sample): 40 µg/mL (≈ 106 µM)
solubility thermodynamic (simulated gastric fluid, solvent: 0.05 N hydrochloric acid solution): 14000 µg/mL (≈ 37200 µM)
solubility thermodynamic (sodium acetate buffer solution, aqueous buffer, solvent: sodium acetate buffer, pH 4.0, comparative control sample): 200 µg/mL (≈ 531 µM)
solubility thermodynamic (sodium phosphate buffer solution, aqueous buffer, solvent: phosphate buffer, pH 6.8, comparative control sample): 40 µg/mL (≈ 106 µM)
Compound 1 concentration (solvent: dimethylacetamide): >100 mg/mL
Compound 1 concentration (solvent: ethanol): 5.4 mg/mL
Compound 1 concentration (solvent: glycerin): 10.0 mg/mL
Compound 1 concentration (solvent: methanol): 9.9 mg/mL
Compound 1 concentration (solvent: polyethylene glycol 300): 69.1 mg/mL
Compound 1 concentration (solvent: polyethylene glycol 400): 77.7 mg/mL
Compound 1 concentration (solvent: polysorbate 80): 29.9 mg/mL
Compound 1 concentration (solvent: propylene carbonate): 17.5 mg/mL
Compound 1 concentration (solvent: propyleneglycol): 54.6 mg/mL
